Reference: ChEMBL document CHEMBL3286198, “Targeting integrins αvβ3 and α5β1 with new β-lactam derivatives” (Eur J Med Chem, 2014)
Activity calls are given as the source filed them. No cut-off for these calls is given here.

What was measured:
Assay type in all cases: cell-based
[1] = target: T1, Integrin alpha-5/beta-1 (Homo sapiens, UniProt P05556+P08648); assay: Agonist activity at alpha5beta1 integrin in human K562 cells assessed as increase of fibronectin-mediated cell adhesion at 10 ug/ml after 30 mins by fluorescence assay in presence of neutralizing antibody of beta1
[2] = target: T2, Integrin alpha-V/beta-3 (Homo sapiens, UniProt P05106+P06756); assay: Agonist activity at alphavbeta3 integrin in human SK-MEL-24 cells assessed as increase of fibronectin-mediated cell adhesion at 10 ug/ml after 30 mins by fluorescence assay in presence of neutralizing antibodies of alphav
[3] = target: Integrin alpha-IIb/beta-3 (Homo sapiens) (UniProt P05106+P08514); assay: Agonist activity at alpha2bbeta3 integrin in PMA-stimulated human K562 cells assessed as increase of cell adhesion after 30 mins by flow cytometry in presence of tirofiban
[4] = target: T1, Integrin alpha-5/beta-1; assay: Agonist activity at alpha5beta1 integrin in human K562 cells assessed as increase of fibronectin-mediated cell adhesion after 30 mins by fluorescence assay
[5] = target: T2, Integrin alpha-V/beta-3; assay: Agonist activity at alphavbeta3 integrin in human SK-MEL-24 cells assessed as increase of fibronectin-mediated cell adhesion after 30 mins by fluorescence assay
[6] = system: K562; assay: Selectivity ratio of EC50 for alphavbeta3 integrin in human SK-MEL-24 cells to EC50 for alpha5beta1 integrin in human K562 cells
[7] = target: Integrin alpha-4/beta-1 (Homo sapiens, UniProt P05556+P13612); assay: Antagonist activity at alpha4beta1 integrin in human Jurkat E6.1 cells assessed as inhibition of VCAM1-mediated cell adhesion after 30 mins by fluorescence assay
[8] = target: Integrin alpha-L/beta-2 (LFA-1) (Homo sapiens, UniProt P05107+P20701); assay: Antagonist activity at alphaLbeta2 integrin in human Jurkat E6.1 cells assessed as inhibition of ICAM1-mediated cell adhesion after 30 mins by fluorescence assay
[9] = target: T1, Integrin alpha-5/beta-1; assay: Agonist activity at alpha5beta1 integrin in human K562 cells assessed as increase of cell adhesion after 30 mins by fluorescence assay
[10] = target: T2, Integrin alpha-V/beta-3; assay: Agonist activity at alphavbeta3 integrin in human SK-MEL-24 cells assessed as increase of cell adhesion after 30 mins by fluorescence assay

Integrin alpha-L/beta-2 (LFA-1), sequence (P20701 whole entry): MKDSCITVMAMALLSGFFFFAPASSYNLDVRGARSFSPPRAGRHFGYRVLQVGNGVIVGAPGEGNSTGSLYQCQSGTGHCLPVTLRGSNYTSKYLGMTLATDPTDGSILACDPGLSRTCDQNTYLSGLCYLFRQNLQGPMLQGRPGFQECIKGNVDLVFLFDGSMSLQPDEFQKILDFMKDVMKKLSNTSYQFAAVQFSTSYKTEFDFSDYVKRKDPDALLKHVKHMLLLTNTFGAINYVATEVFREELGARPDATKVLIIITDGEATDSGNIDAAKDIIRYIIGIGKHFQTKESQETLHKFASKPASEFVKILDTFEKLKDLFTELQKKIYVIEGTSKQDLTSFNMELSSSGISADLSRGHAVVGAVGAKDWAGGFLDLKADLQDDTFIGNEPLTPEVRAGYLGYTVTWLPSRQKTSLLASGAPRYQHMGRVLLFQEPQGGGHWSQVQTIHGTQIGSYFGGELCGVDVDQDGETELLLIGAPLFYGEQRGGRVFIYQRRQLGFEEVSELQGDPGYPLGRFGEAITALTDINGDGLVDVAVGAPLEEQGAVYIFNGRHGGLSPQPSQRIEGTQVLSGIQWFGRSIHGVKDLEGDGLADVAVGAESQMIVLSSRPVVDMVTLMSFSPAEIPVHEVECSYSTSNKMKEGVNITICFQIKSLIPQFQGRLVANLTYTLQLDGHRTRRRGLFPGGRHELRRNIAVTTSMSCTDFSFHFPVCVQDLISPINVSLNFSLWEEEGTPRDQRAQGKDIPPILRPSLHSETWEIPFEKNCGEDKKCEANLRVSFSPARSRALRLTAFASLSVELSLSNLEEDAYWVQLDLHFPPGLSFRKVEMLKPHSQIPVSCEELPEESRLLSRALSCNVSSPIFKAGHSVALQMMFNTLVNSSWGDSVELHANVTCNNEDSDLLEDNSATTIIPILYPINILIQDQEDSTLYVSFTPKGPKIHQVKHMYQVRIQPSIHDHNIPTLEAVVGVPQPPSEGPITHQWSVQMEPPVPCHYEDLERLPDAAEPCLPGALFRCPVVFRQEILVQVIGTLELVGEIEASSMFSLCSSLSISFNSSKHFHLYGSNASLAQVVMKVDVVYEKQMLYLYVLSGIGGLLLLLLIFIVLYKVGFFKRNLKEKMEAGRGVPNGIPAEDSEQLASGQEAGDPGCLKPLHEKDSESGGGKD
Integrin alpha-L/beta-2 (LFA-1), sequence (P05107 whole entry): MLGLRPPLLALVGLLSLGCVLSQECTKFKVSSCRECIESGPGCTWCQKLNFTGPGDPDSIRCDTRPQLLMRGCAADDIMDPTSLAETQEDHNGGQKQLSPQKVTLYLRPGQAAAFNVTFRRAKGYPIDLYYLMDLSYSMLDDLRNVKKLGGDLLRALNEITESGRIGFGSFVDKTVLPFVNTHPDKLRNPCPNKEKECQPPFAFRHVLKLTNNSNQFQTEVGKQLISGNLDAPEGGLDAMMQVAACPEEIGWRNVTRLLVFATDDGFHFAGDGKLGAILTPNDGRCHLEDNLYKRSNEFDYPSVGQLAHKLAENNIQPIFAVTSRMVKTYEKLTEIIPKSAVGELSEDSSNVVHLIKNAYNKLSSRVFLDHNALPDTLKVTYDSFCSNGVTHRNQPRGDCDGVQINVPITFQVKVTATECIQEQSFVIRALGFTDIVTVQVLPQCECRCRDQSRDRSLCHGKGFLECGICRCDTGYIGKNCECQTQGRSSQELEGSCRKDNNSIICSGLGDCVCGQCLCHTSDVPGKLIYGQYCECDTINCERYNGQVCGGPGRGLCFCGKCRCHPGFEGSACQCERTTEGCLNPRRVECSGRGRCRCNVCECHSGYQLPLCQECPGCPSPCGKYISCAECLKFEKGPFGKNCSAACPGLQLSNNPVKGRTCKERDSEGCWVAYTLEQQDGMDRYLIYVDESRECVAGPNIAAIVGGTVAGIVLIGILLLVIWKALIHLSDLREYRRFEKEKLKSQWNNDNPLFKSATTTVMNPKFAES
Integrin alpha-4/beta-1, sequence (P05556 whole entry): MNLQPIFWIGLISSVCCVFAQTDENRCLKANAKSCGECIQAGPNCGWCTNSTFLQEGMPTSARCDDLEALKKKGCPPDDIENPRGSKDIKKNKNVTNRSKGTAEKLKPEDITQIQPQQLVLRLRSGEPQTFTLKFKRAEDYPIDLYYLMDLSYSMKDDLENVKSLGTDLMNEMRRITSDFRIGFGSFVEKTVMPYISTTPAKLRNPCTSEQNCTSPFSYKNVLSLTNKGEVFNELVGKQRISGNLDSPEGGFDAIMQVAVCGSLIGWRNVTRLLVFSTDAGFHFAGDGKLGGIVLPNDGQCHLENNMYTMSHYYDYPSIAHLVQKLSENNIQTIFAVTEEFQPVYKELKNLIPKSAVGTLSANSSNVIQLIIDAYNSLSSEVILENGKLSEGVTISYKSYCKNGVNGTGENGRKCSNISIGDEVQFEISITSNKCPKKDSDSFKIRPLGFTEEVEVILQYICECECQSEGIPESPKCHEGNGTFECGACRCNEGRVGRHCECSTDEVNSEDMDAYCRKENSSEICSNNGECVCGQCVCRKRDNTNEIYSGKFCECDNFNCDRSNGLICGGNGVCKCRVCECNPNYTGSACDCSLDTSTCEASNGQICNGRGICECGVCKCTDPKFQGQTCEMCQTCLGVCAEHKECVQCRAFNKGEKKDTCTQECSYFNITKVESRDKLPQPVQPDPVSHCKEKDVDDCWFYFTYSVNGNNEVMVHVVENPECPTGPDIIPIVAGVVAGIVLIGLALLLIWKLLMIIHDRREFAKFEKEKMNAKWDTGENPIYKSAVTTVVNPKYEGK
Integrin alpha-4/beta-1, sequence (P13612 whole entry): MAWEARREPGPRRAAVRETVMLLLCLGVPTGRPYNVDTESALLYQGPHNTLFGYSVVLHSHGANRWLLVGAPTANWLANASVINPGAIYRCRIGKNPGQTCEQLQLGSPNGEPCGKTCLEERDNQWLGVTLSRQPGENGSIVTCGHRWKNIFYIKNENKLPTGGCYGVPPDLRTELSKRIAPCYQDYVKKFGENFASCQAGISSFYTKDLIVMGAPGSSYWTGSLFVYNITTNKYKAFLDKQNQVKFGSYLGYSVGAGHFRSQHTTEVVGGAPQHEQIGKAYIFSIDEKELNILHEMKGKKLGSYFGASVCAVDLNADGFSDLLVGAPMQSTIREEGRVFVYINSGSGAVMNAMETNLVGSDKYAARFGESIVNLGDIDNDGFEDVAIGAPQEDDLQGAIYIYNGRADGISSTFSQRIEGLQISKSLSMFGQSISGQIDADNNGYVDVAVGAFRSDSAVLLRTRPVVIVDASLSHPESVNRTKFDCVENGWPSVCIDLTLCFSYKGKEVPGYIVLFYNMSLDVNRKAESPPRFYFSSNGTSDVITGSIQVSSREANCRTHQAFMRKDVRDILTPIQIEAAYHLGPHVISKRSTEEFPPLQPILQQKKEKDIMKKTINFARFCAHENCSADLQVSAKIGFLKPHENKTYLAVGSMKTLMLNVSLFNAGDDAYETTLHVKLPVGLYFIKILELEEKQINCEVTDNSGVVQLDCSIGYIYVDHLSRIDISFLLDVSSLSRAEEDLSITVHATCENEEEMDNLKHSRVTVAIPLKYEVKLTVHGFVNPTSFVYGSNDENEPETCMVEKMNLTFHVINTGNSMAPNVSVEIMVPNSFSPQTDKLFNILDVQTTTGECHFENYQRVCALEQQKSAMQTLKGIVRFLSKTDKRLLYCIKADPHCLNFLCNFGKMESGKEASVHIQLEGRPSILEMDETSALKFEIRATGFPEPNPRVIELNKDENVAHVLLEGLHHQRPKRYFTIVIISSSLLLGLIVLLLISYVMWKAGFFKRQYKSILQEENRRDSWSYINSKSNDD

| Activity [1] | Activity [2] | Activity [3] | Activity [4] | EC50 [4] | Activity [5] | EC50 [5] | IC50 [7] | IC50 [8] | Activity [9] | Activity [10] | Structure (SMILES) | Ratio EC50 [6] |
| --- | --- | --- | --- | --- | --- | --- | --- | --- | --- | --- | --- | --- |
| inactive | inactive | Active | Dose-dependent effect | 0.012 µM | Dose-dependent effect | 0.055 µM | ≥ 100 µM | ≥ 100 µM | Active | Active | NCc1ccc(NC(=O)N2C(=O)CC2CC(=O)O)cc1 (stereo not drawn) | 5 |
| inactive | inactive | Active | Dose-dependent effect | 0.763 µM | Dose-dependent effect | 0.011 µM | ≥ 100 µM | ≥ 100 µM | Active | Active | NCc1ccc(NC(=O)N2C(=O)CC2CC(=O)NCC(=O)O)cc1 (stereo not drawn) | – |
| – | – | – | Dose-dependent effect | 0.365 µM | Dose-dependent effect | 10.4 µM | – | – | – | – | NCc1ccc(NC(=O)N2C(=O)C[C@H]2C(=O)O)cc1 | 1000 |
